Experimental data taken from a melting point compilation (Tetko et al.; mined from patent text by program, amines drawn as free bases though some values may be those of a salt).

First: O=S(=O)(c1ccc(Cl)cc1)C(c1cc(F)ccc1F)C1CCCCC1 (stereo unspecified)
Second: CCc1ccc(C2CCCN2S(=O)(=O)c2ccc(C)cc2)cc1 (racemic)
The melting point of the first is higher: 107 to 109 °C for the first, 92 °C for the second.

First: CC1CCOCC1C(C#N)=NO (stereo unspecified)
Second: COc1cc(C=C(C#N)C(N)=O)cc(OC)c1OC
The melting point of the first is lower: 94 to 96 °C for the first, 128 to 130 °C for the second.

First: CCn1c(Oc2cccc(N3CCC4(CC3)OCCO4)c2)nnc1[C@@H](C)NS(=O)(=O)c1ccc(Cl)c(Cl)c1
Second: C=CCOc1ccc(S(=O)(=O)Nc2ccc(Cl)cc2C(=O)c2ccccc2Cl)cc1
The melting point of the first is higher: 174 to 179 °C for the first, 96 to 97 °C for the second.

First: O=C(O)CNC(=O)c1ccc([N+](=O)[O-])cc1[N+](=O)[O-]
Second: COc1cccc(NC(=O)C(N)=O)c1C(N)=O
The melting point of the first is lower: 188 to 190 °C for the first, 252 to 255 °C for the second.

First: CCC1(C)CC2(NC(=O)N(Cc3ccc(CN4C(=O)NC5(CC(C)(CC)NC(C)(CC)C5C)C4=O)cc3)C2=O)C(C)C(C)(CC)N1 (stereo unspecified)
Second: CCN1C(=O)C(C)(C)C(=O)N(C)c2cc(CN(CCn3ccc4oc(C)cc4c3=O)Cc3ccc(OC)nc3C)ccc21
The melting point of the first is higher: 272 to 274 °C for the first, 155 to 156 °C for the second.

First: O=Cc1ccc(-c2cn3ccnc3s2)cc1
Second: Cc1ccc(C=Cc2ccc(-c3ccccc3)s2)cc1
The melting point of the first is higher: 169 °C for the first, 159 to 160 °C for the second.

First: N#Cc1cccc(-c2nc(S(=O)(=O)C(F)(F)F)cc3cccnc23)c1
Second: N#Cc1ncccc1Oc1ccccc1
The melting point of the first is higher: 102 to 104 °C for the first, 79 to 82 °C for the second.

Compared with `COc1ccccc1N1CCN(CCn2cnc3sc4c(c3c2=O)CCN(C(C)=O)C4)CC1`, `CCCN(CCc1coc2c(OC)cccc12)C1COc2c(F)ccc(C(N)=O)c2C1` (stereo unspecified) is lower in melting point: 170 to 172 °C for the first, 125 to 132 °C for the second.

First: COc1ccc2c(c1)C(=O)OCN2c1ccccc1
Second: COc1ccc2c(c1)cc(-c1cc3cccnc3[nH]1)n2C
The melting point of the first is lower: 99.5 to 101 °C for the first, 234 to 235 °C for the second.

First: CS(=O)c1c[nH]c2c(Sc3nc4cc(Cl)ccc4[nH]3)ccc([N+](=O)[O-])c12 (stereo unspecified)
Second: N#Cc1cc([N+](=O)[O-])[nH]c1-c1ccc(Cl)cc1
The melting point of the first is higher: 243 to 246 °C for the first, 201 to 206 °C for the second.

First: Cc1oc(-c2ccccc2)nc1CCOc1ccc(CCC(=O)NC(N)=O)cc1
Second: Cc1oc(-c2ccccc2)nc1COc1cccc(COc2cc(CCC(=O)O)n(-c3ccccc3)n2)c1
The melting point of the first is higher: 177 to 178 °C for the first, 137 to 138 °C for the second.

First: CN(C(=O)Nc1ccc(Cl)cc1)c1nnc(Cl)s1
Second: Cc1nc2c(s1)CN=C(c1ccccc1F)c1cc(Cl)ccc1-2
The melting point of the first is higher: 250 °C for the first, 147 to 149 °C for the second.

First: CN(C)c1cccc2c1c(=O)n(C)c1c(-c3noc(C4CC4)n3)ncn21
Second: CCc1nc2c(C)cc(C)nc2n1Cc1ccc(C(=C(Br)c2nnn[nH]2)c2ccccc2)cc1
The melting point of the first is higher: 170 to 171 °C for the first, 149 to 151 °C for the second.

First: CCCCc1ccc2c(c1)-c1[nH]c(C(=O)OC)cc(=O)c1CS2
Second: CCOC(=O)C1=C(C)NC(c2cscn2)=NC1c1cccc(F)c1 (stereo unspecified)
The melting point of the first is higher: 144 to 146 °C for the first, 118 to 120 °C for the second.

First: c1ccc2c(c1)-c1ccccc1C2CC1c2ccccc2-c2ccccc21
Second: CC(C)(C)c1cc(C[C@@H]2N[C@@H](c3ccccc3)[C@@H](c3ccccc3)OC2=O)ccc1O
The melting point of the first is higher: 210 to 212 °C for the first, 76 to 80 °C for the second.

Compared with `CCC(C)c1ccc(-n2c(-c3cc(C)c(OCCO)c(C)c3)nc3ccc(F)cc3c2=O)cc1` (stereo unspecified), `Cc1ccc2c(c1)c(-c1ccc(F)cc1)c(C)n2-c1ccncc1` is higher in melting point: 70 to 72 °C for the first, 172 to 174 °C for the second.

Compared with `CCOC(=O)c1c2ccc(Cl)cc2c(-c2ccccc2)n1CCCN(C)c1ccccc1`, `CC(NC(=O)c1ccc(Cl)cc1)c1cccc2ccccc12` (stereo unspecified) is higher in melting point: 108 to 110 °C for the first, 117 to 118 °C for the second.

First: Cc1cc(-c2cc(O)c(SCc3ccccc3)c(=O)o2)cc(C)c1O
Second: CC(=O)c1cc(O)cc2cc(-c3ccc(O)cc3)oc12
The melting point of the first is lower: 174 to 176 °C for the first, 274 to 276 °C for the second.

Compared with `CN(C)C(=NC(=O)C(O)(C(N)=O)c1ccc(Cl)c(Cl)c1)N(C)C` (stereo unspecified), `CC(C)(C)c1ccc2c(c1)C=C(C(=O)O)C(C(F)(F)F)S2` (stereo unspecified) is higher in melting point: 98 to 100 °C for the first, 184 to 185 °C for the second.

Compared with `CCOc1c(C(F)(F)F)cc([N+](=O)[O-])c2nc(C(F)(F)F)[nH]c12`, `CCn1nnn(-c2cc(O)c(Cl)cc2Cl)c1=O` is higher in melting point: 144 to 146 °C for the first, 149 to 150 °C for the second.

First: CN1CCCCNC1=C[N+](=O)[O-]
Second: C=CC(=O)Nc1ccc(-c2ccc(C(=O)N3CCN4CCC3CC4)o2)cc1
The melting point of the first is lower: 88 to 89 °C for the first, 230 to 246 °C for the second.

First: CC(C)(CCc1cc2nc(Cl)ccc2n1S(=O)(=O)c1ccc2ncsc2c1)C(=O)O
Second: O=C(O)c1cccc(-c2ccc3c(c2)N(Cc2cccc(Cl)c2Cl)CC3)c1
The melting point of the first is lower: 21 °C for the first, 185 to 186 °C for the second.

First: N=C(N)N(CCCCCCCCCCC(=O)O)C(=O)c1nc(Cl)c(N)nc1N
Second: CCCCCCCCNC(=O)CCCC(C)(C)c1ccc(O)cc1O
The melting point of the first is higher: 181 to 191 °C for the first, 110 to 113 °C for the second.

First: N#CC1(C(O)(Cn2cncn2)c2ccccc2)CC1 (stereo unspecified)
Second: O=C1Nc2cccc(I)c2/C1=C/c1ccc[nH]1
The melting point of the first is lower: 103 to 105 °C for the first, 256 to 258 °C for the second.

First: CCCc1nc2c(c(C)c(C)n3nnnc23)n1CC(C)(C)N
Second: CCCCOc1cc2c(Nc3cc(OC)c(Cl)cc3Cl)c(C#N)cnc2cc1OCCOC
The melting point of the first is lower: 154 to 156 °C for the first, 166 to 167 °C for the second.

With `CCCCCCCCCCCC(=O)NCCNCCNCCNC(=O)CCCCCCCCCCC` the melting point was 110 to 112 °C.
